{"source": "patent US20250171468A1", "about": "“PHENOXIDO COPPER COMPLEXES AND METHODS FOR USING THEM IN THE TREATMENT OF CANCER” (UNIVERSITY OF LOUISIANA LAFAYETTE, priority 2023, published 2025)", "key": {"[1]": {"system": "all tested cancer cell lines", "details": "cited from earlier work"}, "A2780 cells [2]": {"system": "A2780 cells", "experiment": "Cell cycle analysis by flow cytometry", "type": "cell-based, human", "details": "A2780, 24 h; 4 and 6 at 3 μM, 7 at 15 μM, cisplatin at 19 μM", "method": "Similar cellular effects were described for a number of copper(II) complexes previously for a number of copper(II) complexes involving various ligands [40-43.]\nThe A2780 cells (Sigma, 93112519-1VL) were cultivated according to the producer's instructions and seeded at the concentration of 10^4 cells/well in 96-wells. […] After 24 h, the cells were washed once with PBS (0.1 M, pH 7.4) and cell cycle analysis was performed according to the protocol based on BD Cycletest™ Plus DNA kit (Becton Dickinson, USA). Measurements were performed using BD FACSVerse flow cytometer (Becton Dickinson, USA) in three independent experiments, each done in duplicate, while at least 5×10^3 events were recorded for each sample."}, "A2780 cells [3]": {"system": "A2780 cells", "experiment": "Cell death induction, Annexin V / propidium iodide flow cytometry", "type": "cell-based, human", "details": "A2780, 24 h; applied at concentration causing 50% decrease in proliferation", "method": "The induction of cell death in A2780 cancer cells was monitored by flow cytometry. Three types of cells were identified by incubation with Annexin V antibody and propidium iodide (PI). The normal cells were Annexin V and PI negative.\n(§1) Both assays were performed according to the manufacturers' protocols with one modification in caspase induction assay, which was the use of CellEvent™ Caspase-3/7 Green Detection Reagent only for detection of Caspase-3/7 activation. […] After the 24 h incubation period, cells were washed once with PBS (0.1 M, pH 7.4), detached by trypsinization (0.25% trypsin-EDTA (Gibco™), resuspended in 500 L of culture medium and divided into two separate samples. The first sample was used in the apoptosis assay and the second one was used to detect the activation of caspases 3/7 in A2780 cells. The samples were analyzed using the BD FACSVerse flow cytometer (Becton Dickinson, USA) in three separate experiments, while at least 10^4 events were recorded for each sample prepared in duplicates."}, "[4]": {"system": "caspases 3/7 in A2780 cells", "experiment": "Activation of effector caspases 3/7, flow cytometry", "type": "cell-based, human", "details": "A2780, 24 h incubation, IC50 concentrations", "method": "To assess the participation of apoptosis on the cell death induced by the studied complexes, the activity of effector caspases 3/7 in A2780 cells incubated with the tested compounds was determined by flow cytometry. […] This unequivocally means that the cell death they induce proceeds via a mechanism independent from caspases.\nas §1"}, "A2780 cells [5]": {"system": "A2780 cells", "experiment": "Autophagy induction, CYTO-ID kit flow cytometry", "type": "cell-based, human", "details": "A2780, 24 h; 4 and 6 at 3 μM, 7 at 15 μM, cisplatin at 19 μM", "method": "To further explore the mechanisms involved in the cellular death of A2780 cells induced by the complexes, the autophagy progression was monitored in the cells using a specific flow cytometry-based kit. The autophagy signaling caused by the incubation with the tested compounds was compared to the untreated control group of cells and positive control group, which included cells treated with the chloroquine/rapamycin (CQ/Rapamycin) mixture inducing strong autophagic response in cells. […] In fact, autophagy might have a dual role in cancer as it can help the cancer cells to overcome metabolic stress (hypoxia, lack of nutrients) and suppress tumor progression through degradation of oncogenic proteins. Many anticancer agents, including the copper(II) complexes, which mechanism of action includes different cellular processes, such as inhibition of mTORC1, proteasome inhibition, inhibition of histone deacetylases or topoisomerases, induce autophagy. On the other hand, the apoptosis is evidently a main route of cell death in the A2780 cells caused by complex 7.\nThe analyses were performed according to the manufacturer's protocol on A2780 cells pretreated for 24 h by the tested compounds. […] The samples were analyzed using the BD FACSVerse flow cytometer (Becton Dickinson, USA) in three separate experiments, while at least 10^4 events were recorded for each sample prepared in duplicates. […]"}, "A2780 cells [6]": {"system": "A2780 cells", "experiment": "Intracellular ROS/superoxide production", "type": "cell-based, human", "details": "A2780, 24 h", "method": "The effects of the tested compounds on the ROS production in A2780 cells and on the progression of the oxidative stress caused by the known pro-oxidant agent (pyocyanin) were observed by means of flow cytometry using a specific kit of intracellular ROS, and superoxide detection, respectively. […] Approximately the same pattern was identified also in case of superoxide production (FIG. 16).\nThe oxidative stress analysis was performed using ROS-ID® Total ROS/Superoxide detection kit (Enzo Life Sciences, US) according to the manufacturer protocol. The samples were analyzed in triplicates on multimode microplate reader Infinite PRO M200 (Tecan, Switzerland). The control samples contained 500 iM pyocyanin."}, "A2780 cells [7]": {"system": "A2780 cells", "experiment": "Mitochondrial membrane potential analysis", "type": "cell-based, human", "details": "A2780, 24 h incubation, IC50 concentrations", "method": "In order to get more insight about the mechanisms involved in the induction of cell death in the A2780 cells treated with the complexes 4, 6, and 7, the detection of mitochondrial membrane potential in the cells was performed by means of flow cytometric analysis using a specific kit. […] Both these agents induced the apoptosis via the intrinsic route of apoptosis activation, characterized by the efflux of cytochrome c from the damaged mitochondria to the cytoplasm of the cells, followed by the formation of […] and activation of effector caspases 3/7 leading to the destruction of cell cytoskeleton and fragmentation of DNA. […] The major suspect in this case is the induction of cuproptosis, a relatively newly discovered mechanism of cell death caused by copper, which is characterized by the high intracellular levels of copper, low levels of apoptosis, yet substantial antiproliferative effects on the target cells. […]\nThe cells were washed with PBS, detached by trypsin treatment, isolated by centrifugation, and resuspended in 500 iL of culture medium. […] The samples were measured in triplicates, while at least 10^4 events were recorded using BD FACSVerse flow cytometer (Becton Dickinson, USA). […]"}}, "data": [{"smiles": "CCN(CC)C(=S)[S-].CCN(CC)C(=S)[S-].[Cu+2]", "note": "[[Cu(DDC)2]]", "values": [{"measurement": "IC50 compared with cisplatin", "setting": "[1]", "result": "less than that of cisplatin"}]}, {"smiles": "[Cu+2].[O-]c1c(I)cc(Cl)c2cccnc12.[O-]c1c(I)cc(Cl)c2cccnc12", "note": "[[Cu(CQ)2]]", "values": [{"measurement": "IC50 compared with cisplatin", "setting": "[1]", "result": "less than that of cisplatin"}]}, {"smiles": "N.N.[Cl][Pt][Cl]", "note": "[Cisplatin, cisplatin, reference compound]", "values": [{"measurement": "cell-cycle modification", "setting": "A2780 cells [2]", "result": "significant arrest of cells in S phase"}, {"measurement": "induction of cell death (apoptosis and necrosis)", "setting": "A2780 cells [3]", "result": "most intensive induction of cell death processes"}, {"measurement": "activation of effector caspases 3/7", "setting": "[4]", "result": "significant activation"}, {"measurement": "activation of autophagy", "setting": "A2780 cells [5]", "result": "significant activation of autophagy"}, {"measurement": "promotion of oxidative stress (ROS production) by the compound itself", "setting": "A2780 cells [6]; no pyocyanin pretreatment", "result": "none of the tested complexes 4, 6, and 7 nor cisplatin showed any significant abilities to promote the oxidative stress by themselves"}, {"measurement": "effect on oxidative stress caused by pyocyanin pretreatment", "setting": "A2780 cells [6]; pretreated with pyocyanin", "result": "only slight antioxidative effects"}, {"measurement": "mitochondrial membrane damage", "setting": "A2780 cells [7]", "result": "impairment of the mitochondrial membrane function/permeability"}]}, {"smiles": "On1ccccc1=S.On1ccccc1=S.[Cu]", "note": "[[Cu(Pyr)2]]", "values": [{"measurement": "IC50 compared with cisplatin", "setting": "[1]", "result": "less than that of cisplatin"}]}, {"smiles": "[Cu+2].[O-]c1cccc2cccnc12.[O-]c1cccc2cccnc12", "note": "[[Cu(8-HQ)2]]", "values": [{"measurement": "IC50 compared with cisplatin", "setting": "[1]", "result": "less than that of cisplatin"}]}]}
